These results are taken from patent publication US7186727B2, “Pyridyl-substituted spiro-hydantoin compounds and use thereof” (Bristol-Myers Squibb Company, priority 2004, dated 2007).

Molecules are shown by their SMILES.

The nature of this data set: Microsomal liver assay (rate of oxidative metabolism). The class given is in vitro ADME. The settings on record: human liver microsomes; 3 μM test compound, 1 mg/mL microsomal proteins, 37° C. The procedure: Mouse and rat liver microsomes were purchased from XenoTech LLC (Kansas City, Kans.), and human liver microsomes were obtained from BD Gentest (Woburn, Mass.).
The oxidative metabolism in liver microsomes of various species was studied under the following condition: 3 μM test compound (organic solvent content <0.1%), 1 mg/mL microsomal proteins, 1 mM β-nicotinamide adenine dinucleotide phosphase (β-NADPH), 100 mM phosphate buffer (pH 7.4), and 6.7 MM magnesium chloride. The reaction (n=3) was initiated by the addition of NADPH followed by incubation at 37° C. for 20 min. Aliquots of samples (0.1 mL) were taken at 0, 5, and 20 min, and the reaction was quenched by the addition of three volumes of acetonitrile. Samples were stored at −20° C. until analysis.
The rate of oxidation in liver microsomes was determined from the following equation: rate (nmol/min/mg protein)=k*C0/Cprotein, where k (1/min) is the turnover rate constant estimated from non-linear regression of the percent compound remaining (y)-time (t) curve using the equation y=y0*exp(−k*t); C0 is initial drug concentration (μM), and Cprotein is microsomal protein concentration (mg/mL).
Rates of metabolism are “binned” (classified) as follows: […]

For `CN1C(=O)N(c2cc(Cl)cc(Cl)c2)C(=O)[C@]12CN(c1ccccn1)C[C@H]2c1ccc(C#N)cc1` (relative stereo) [4-[(5S*,9R *)-3-(3,5-dichlorophenyl)-1-methyl-2,4-dioxo-7-pyridin-2-yl-1,3,7-triazaspiro[4.4]non-9-yl]-benzonitrile], the rate of metabolism came out at 0.2 nmol/min/mg.
